Consider 16 compounds from ChEMBL document CHEMBL3217722, “Synthesis of hybrid 4-anilinoquinoline triazines as potent antimalarial agents, their in silico modeling and bioevaluation as Plasmodium falciparumtransketolase and -hematin inhibitors” (Medchemcomm, 2012).

The term IC50 denotes the concentration that inhibits the measured activity by half.

Each structure is given as a SMILES string. Converted amounts (≈) assume the structure as drawn.

In data set [1] the test system is Plasmodium falciparum. The data set is described as follows: Antiplasmodial activity against chloroquine-sensitive Plasmodium falciparum 3D7 after 72 hrs by SYBR Green-1 dye-based fluorescence assay. Format: functional, organism-based. The note with it: 3D7, 72 h.
Data set [2] has as its system Plasmodium falciparum. The data set is described as follows: Antiplasmodial activity against chloroquine-resistant Plasmodium falciparum K1 after 72 hrs by SYBR Green-1 dye-based fluorescence assay. Format: functional, organism-based. The note with it: K1, 72 h.
Data set [3] in a line: Selectivity index, ratio of IC50 for African green monkey Vero cells to IC50 for Plasmodium falciparum. The settings on record: read-out: Ratio IC50. The format is toxicity, cell-based.
A further data set has as its system Plasmodium yoelii. The data set is described as follows: Inhibition of beta-hematin formation in Plasmodium yoelii infected Swiss mouse plasma after 16 hrs. The format is functional.

For `Clc1ccc2c(Nc3ccc(Nc4nc(NCCN5CCOCC5)nc(N5CCOCC5)n4)cc3)ccnc2c1`, the values for the IC50 in the data set with Plasmodium falciparum [1], in the data set with Plasmodium falciparum [2] and in the data set with Plasmodium yoelii were 0.00587 µg/mL (≈ 0.0104 µM), 0.0532 µg/mL (≈ 0.0946 µM) and 9.82 µg/mL (≈ 17.5 µM), respectively. Further, the selectivity ratio in data set [3] turned out to be 41.6.
On to `CN1CCN(c2nc(Nc3ccc(Nc4ccnc5cc(Cl)ccc45)cc3)nc(N3CCc4ccccc4C3)n2)CC1`, for which the concentration for half-maximal inhibition (IC50) in the data set with Plasmodium falciparum [1] came to 0.0281 µg/mL (≈ 0.0486 µM); with Plasmodium yoelii, 2.81 µg/mL (≈ 4.86 µM). In data set [3], the selectivity ratio amounted to 48.4.
With `CN1CCN(c2nc(Nc3ccc(Nc4ccnc5cc(Cl)ccc45)cc3)nc(N3CCCc4ccccc43)n2)CC1`, the IC50 came to 0.0126 µg/mL (≈ 0.0219 µM) with Plasmodium falciparum [1], 0.0682 µg/mL (≈ 0.118 µM) in the data set on Plasmodium falciparum [2] and 2.48 µg/mL (≈ 4.29 µM) with Plasmodium yoelii. Also, in data set [3], the selectivity ratio amounted to 74.4.
In the same order, the values of `Clc1ccc2c(Nc3ccc(Nc4nc(NCCCN5CCOCC5)nc(N5CCCc6ccccc65)n4)cc3)ccnc2c1` are 0.0147 µg/mL (≈ 0.0236 µM), over 0.5 µg/mL, 2.4 µg/mL (≈ 3.86 µM) and 440.
Regarding `CCN1CCN(c2nc(Nc3ccc(Nc4ccnc5cc(Cl)ccc45)cc3)nc(N3CCc4ccccc4C3)n2)CC1`, the figures for the 50% inhibitory concentration (IC50) in the data set with Plasmodium falciparum [1], with Plasmodium falciparum [2] and with Plasmodium yoelii were 0.0121 µg/mL (≈ 0.0205 µM), 0.116 µg/mL (≈ 0.196 µM) and 2.25 µg/mL (≈ 3.8 µM), respectively. For the same compound, the selectivity ratio in data set [3] was 75.9.
In the same order, the values of `CCN1CCN(c2nc(Nc3ccc(Nc4ccnc5cc(Cl)ccc45)cc3)nc(Nc3ccc(OC)cc3)n2)CC1` are 0.00426 µg/mL (≈ 0.00732 µM), 0.00308 µg/mL (≈ 0.00529 µM), 2.08 µg/mL (≈ 3.57 µM) and 75.1.
In the same order, the values of `Clc1cccc(Nc2nc(NCCN3CCOCC3)nc(Nc3ccc(Nc4ccnc5cc(Cl)ccc45)cc3)n2)c1` are 0.0306 µg/mL (≈ 0.0508 µM), 0.00649 µg/mL (≈ 0.0108 µM), 2.01 µg/mL (≈ 3.34 µM) and 101.
Consider `Clc1ccc(Nc2nc(NCCCN3CCOCC3)nc(Nc3ccc(Nc4ccnc5cc(Cl)ccc45)cc3)n2)cc1`, for which the figures for the IC50 with Plasmodium falciparum [1], in the data set on Plasmodium falciparum [2] and with Plasmodium yoelii were 0.00463 µg/mL (≈ 0.00751 µM), 0.00858 µg/mL (≈ 0.0139 µM) and 2.25 µg/mL (≈ 3.65 µM), respectively. For the same compound, the selectivity ratio in data set [3] was found to be 482.
In the same order, the values of `CCN1CCN(c2nc(Nc3ccc(F)cc3)nc(Nc3ccc(Nc4ccnc5cc(Cl)ccc45)cc3)n2)CC1` are 0.0111 µg/mL (≈ 0.0195 µM), 0.0198 µg/mL (≈ 0.0347 µM), 2.64 µg/mL (≈ 4.63 µM) and 88.2.
In the same order, the values of `COc1ccc(Nc2nc(Nc3ccc(Nc4ccnc5cc(Cl)ccc45)cc3)nc(N3CCN(C)CC3)n2)cc1OC` are 0.00504 µg/mL (≈ 0.00843 µM), 0.00486 µg/mL (≈ 0.00813 µM), 3.05 µg/mL (≈ 5.1 µM) and 169.
Consider `Clc1ccc2c(Nc3ccc(Nc4nc(NCCN5CCOCC5)nc(N5CCc6ccccc6C5)n4)cc3)ccnc2c1`, for which the 50% inhibitory concentration (IC50) was 0.0452 µg/mL (≈ 0.0743 µM) with Plasmodium falciparum [1] and 2.08 µg/mL (≈ 3.42 µM) with Plasmodium yoelii. In addition, the selectivity ratio in data set [3] worked out at 1160.
As to `CN1CCN(c2nc(Nc3ccc(Nc4ccnc5cc(Cl)ccc45)cc3)nc(N3CCOCC3)n2)CC1`, the IC50 with Plasmodium falciparum [1] is 0.00322 µg/mL (≈ 0.00605 µM); in the data set with Plasmodium falciparum [2] it was 0.00286 µg/mL (≈ 0.00538 µM); with Plasmodium yoelii it was 6.5 µg/mL (≈ 12.2 µM). Also, in data set [3], the selectivity ratio was 121.
For `CCN1CCN(c2nc(Nc3ccc(Nc4ccnc5cc(Cl)ccc45)cc3)nc(Nc3cccc(OC)c3)n2)CC1`, the IC50 stood at 0.0089 µg/mL (≈ 0.0153 µM) in the data set on Plasmodium falciparum [1] and 2.25 µg/mL (≈ 3.87 µM) in the data set with Plasmodium yoelii. The selectivity ratio in data set [3] was determined as 73.
For the compound `COc1cccc(Nc2nc(NCCCN3CCOCC3)nc(Nc3ccc(Nc4ccnc5cc(Cl)ccc45)cc3)n2)c1`, the figures for the concentration for half-maximal inhibition (IC50) in the data set with Plasmodium falciparum [1] and in the data set on Plasmodium yoelii were 0.00298 µg/mL (≈ 0.00487 µM) and 3.49 µg/mL (≈ 5.7 µM), respectively. For the same compound, the selectivity ratio in data set [3] came out at 2500.
With `COc1cccc(Nc2nc(Nc3ccc(Nc4ccnc5cc(Cl)ccc45)cc3)nc(N3CCN(C)CC3)n2)c1`, the 50% inhibitory concentration (IC50) in the data set with Plasmodium falciparum [1] was 0.00426 µg/mL (≈ 0.0075 µM); in the data set on Plasmodium yoelii, 2.05 µg/mL (≈ 3.61 µM). The selectivity ratio in data set [3] came out at 117.
In the same order, the values of `Fc1ccc(Nc2nc(NCCCN3CCOCC3)nc(Nc3ccc(Nc4ccnc5cc(Cl)ccc45)cc3)n2)cc1` are 0.0158 µg/mL (≈ 0.0264 µM), 2.17 µg/mL (≈ 3.62 µM) and 682.
